Measured values from patent publication US8466186B2, “Compounds” (Boehringer Ingelheim International GmbH, priority 2010, dated 2013).
pIC50: −log10 of the molar value.

Molecular target: T1, recombinant human mPGES-1 (Homo sapiens, UniProt O14684)
T1 construct: made in house; host or cells: Rosetta E. coli (membrane/microsome fraction)
T1 sequence (O14684 1-152): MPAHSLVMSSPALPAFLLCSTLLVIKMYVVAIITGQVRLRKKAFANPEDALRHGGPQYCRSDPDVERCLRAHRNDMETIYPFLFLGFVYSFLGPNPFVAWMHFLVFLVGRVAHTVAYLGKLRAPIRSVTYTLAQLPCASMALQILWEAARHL
Test: Assay A: mPGES-1 enzyme assay (HTRF detection of PGE2)
Type: biochemical
Conditions: biological assay A; microsomes from E. coli expressing recombinant human mPGES-1; read-out: mPGES-1 inhibitory effect IC50
Text: The aim of this assay is to determine the affinity of a test compound for the mPGES-1 enzyme.
• 1. Riendeau, D., R. Aspiotis, D. Ethier, Y. Gareau, E. Grimm, J. Guay, S. Guiral, H. Juteau, J. Mancini, N. Methot, J. Rubin, and R. Friesen, Inhibitors of the inducible microsomal prostaglandin E2 synthase (mPGES-1) derived from MK-886. Bioorg Med Chem Lett, 2005. 15(14): p. 3352-3355. • 2. Cote, B., L. Boulet, C. Brideau, D. Claveau, D. Ethier, R. Frenette, M. Gagnon, A. Giroux, J. Guay, S. Guiral, J. Mancini, E. Martins, F. Masse, N. Methot, D. Riendeau, J. Rubin, D. Xu, H. Yu, Y. Ducharme, and R. Friesen, Substituted phenanthrene imidazoles as potent, selective, and orally active mPGES-1 inhibitors. Bioorg Med Chem Lett, 2007. 17(24): p. 6816-6820. Assay A: mPGES-1 Enzyme Assay List of Reagents Used: • Glutathione (Sigma, G-4251) • Freeze culture in Rosetta E coli expression strain. • LB growth media with Ampillicillin (Amp) final concentration in culture 50 μg/mL • Chloroamphenicol stock 34 mg/mL (chloro) final concentration in culture 34 μg/mL • Sterile growth flasks for 500 mL-1 liter cultures • 0.1 M KP, buffer pH 7.4 • 9.25% HCl • PGH2 (0.25 mM) • Fe (II) Cl2 tetrahydrate, 99% (Sigma, 220229) • 384-well plate with compounds • 96-well plate, polypropylene (Thermo fast 96 skirted VWR) • 384-well plate polypropylene PCR plate (Greiner 785201) • Greiner 384-well plate pp (In vitro cat. no. 781280) • Adhesive sealing film for 96-well plates (Sigma-Aldrich) • Aluminium foil (PCR foil, 310-0030-127-471 from Labora) • PBS (GIBCO 14040) • Prostaglandin E2 Assay (Cisbio, cat. no. 62P2APEC) • Biomek FX robot (Beckman Coulter) • Biomek NX robot (Beckman Coulter) • Multidrop; micro or combi (ThermoLabsystems) • Plate reader: Safire2 (Tecan)
Microsomes from Rosetta E. coli bacteria expressing recombinant human mPGES-1 can be derived as described below:
Inoculate 5 mL LB with Amp and Chloro with bacteria from freeze culture. Incubate overnight at 37° C. with 200 rpm. Thereafter, inoculate 500-800 mL LB containing Amp and Chloro with the 5 mL on culture and grow to OD640 of 0.6-0.8. Chill the culture to +4° C. before induction. Induce the culture with IPTG at a final concentration of 400 μM. Express the protein at room temp 18-23° C. with 200 rpm shaking overnight.
The following steps can be performed on the following day: • 1. Spin down the cells in 250 mL centrifuge flasks for 15 min at 7000 rpm • 2. Dissolve the pellet from 250 mL culture in 12.5 mL homogenization buffer • 3. Disintegrate the cells by sonication, 4×10 seconds at 35% amplitude • 4. Add 2.5 mL MgCl2 (100 mM) and DNase 12.5 μL (0.8 mg/mL) and incubate on ice for 30 min • 5. Spin down the bacteria debris and save the supernatant, 7000 rpm for 15 min • 6. Isolate the protein containing membranes in the supernatant by ultracentrifugation 45000×g for 1 hour. • 7. Discard the supernatant and dissolve the pellet in 20 mM KPi buffer and aliquot the enzyme and store aliquots at −80° C.
Before each experiment is performed an aliquot of the enzyme is thawed and it can then be dissolved in 0.1 M KP, pH 7.4 buffer containing 2.5 mM GSH. 50 μL of this enzyme solution is subsequently dispensed in a 384-well plate at room temperature. 0.5 μL of the inhibitor dissolved in DMSO is thereafter added to each well and incubated for 25 minutes at room temperature. Subsequently, 2 μL of PGH2 dissolved in an appropriate solvent is added to each well and after one minute at room temperature, the acidified stop solution containing FeCl2 is added. 4 μL of the total volume is transferred to a separate plate and diluted 750-fold in two separate steps before quantification of PGE2.
In order to quantitate the amount of PGE2 that has been formed, a homogenous time resolved fluorescent (HTRF) detection of PGE2 can be performed by the use of a commercially available kit from CisBio essentially according to the manufacturer's protocol. […]

Row | Compound | pIC50
1 | O=S(=O)(NCc1ccc(Cl)c(Nc2nc3ccc(N4CCCC4)cc3[nH]2)c1)C1CC1 [Example 30, N-{4-Chloro-3-[5-(pyrrolidin-1-yl)-1H-benzimidazol-2-ylamino]-benzyl}cyclopropylsulfonamide] | 6.52
2 | CN(C)CC1CCCN1c1cc2[nH]c(Nc3cc(CNC(=O)C(C)(C)C)ccc3Cl)nc2cc1Cl (stereo not shown) [Example 7, N-{4-Chloro-3-[5-chloro-6-(2-dimethylaminomethyl-pyrrolidin-1-yl)-1H-benzimidazol-2-ylamino]-benzyl}-2,2-dimethyl-propionamide] | 7.13
3 | Cn1c(Nc2cc(CNC(=O)C3(C(F)(F)F)CC3)ccc2Cl)nc2cc(Cl)c(N3CCOCC3)cc21 [Example 10] | 7.51
4 | CC(C)(C)C(=O)NCc1ccc(Cl)c(Nc2nc3cc(N4CCC(F)(F)C4)c(Cl)cc3[nH]2)c1 [Example 2, N-{4-Chloro-3-[6-chloro-5-(3,3-difluoropyrrolidin-1-yl)-1H-benzo[d]imidazol-2-ylamino]benzyl}-2,2-dimethyl-propionamide] | 7.72
5 | Cn1c(Nc2cc(CNC(=O)c3c(Cl)cncc3Cl)ccc2Cl)nc2cc(Cl)c(N3CCCC(C(F)(F)F)C3)cc21 (stereo not shown) [Example 54] | 8.18
6 | CC(C)(C)C(=O)NCc1ccc(Cl)c(Nc2nc3cc(N4CCCC4)ccc3[nH]2)c1 [Example 20] | < 7.00
7 | CN(C)CC1CCN(c2cc3[nH]c(Nc4cc(CNC(=O)C(C)(C)C)ccc4Cl)nc3cc2Cl)C1 (stereo not shown) [Example 3, N-{4-Chloro-3-[5-chloro-6-(3-dimethylaminomethyl-pyrrolidin-1-yl)-1H-benzimidazol-2-ylamino]-benzyl}-2,2-dimethyl-propionamide] | 6.15
8 | CC1CCCCC1C(=O)NCc1ccc(Cl)c(Nc2nc3cc(N4CCCC4)ccc3[nH]2)c1 (stereo not shown) [Example 19] | 7.28

The remaining lines, values ahead:

Row | pIC50 | Compound
9 | 8.10 | COC[C@@H]1CCCN1c1cc2[nH]c(Nc3cc(CNC(=O)C4(C)CCCCC4)ccc3Cl)nc2cc1Cl [Example 122]
10 | 7.28 | CC1(C(=O)NCc2ccc(Cl)c(Nc3nc4ccc(N5CCCC5)cc4[nH]3)c2)CCCCC1 [Example 118]
11 | 8.46 | Cn1c(Nc2cc(CNC(=O)C(C)(F)F)ccc2Cl)nc2cc(Cl)c(N3CCC(C(F)(F)F)CC3)cc21 [Example 94, N-{4-Chloro-3-[5-chloro-1-methyl-6-(4-trifluoromethyl-piperidin-1-yl)-1H-benzimidazol-2-ylamino]-benzyl}-2,2-difluoro-propionamide]
12 | 8.24 | Cn1c(Nc2cc(CNC(=O)C(C)(N)C(F)(F)F)ccc2C(F)(F)F)nc2cc(Cl)c(N3CCC(C(F)(F)F)CC3)cc21 (stereo not shown) [Example 108]
13 | 8.40 | Cn1c(Nc2cc(CNC(=O)c3c(Cl)cccc3Cl)ccc2Cl)nc2cc(Cl)c(N3CCCC(C(F)(F)F)C3)cc21 (stereo not shown) [Example 68]
14 | 7.85 | Cn1c(Nc2cc(CNC(=O)C3(C(F)(F)F)CC3)ccc2Cl)nc2cc(F)c(N3CCC(C)(C)CC3)cc21 [Example 87]
15 | 7.77 | N#Cc1c(N2CCCC(C(F)(F)F)C2)ccc2nc(Nc3cc(CNC(=O)C4(C(F)(F)F)CC4)ccc3Cl)[nH]c12 (stereo not shown) [Example 93, N-{4-Chloro-3-[4-cyano-5-(3-trifluoromethyl-piperidin-1-yl)-1H-benzimidazol-2-ylamino]-benzyl}-1-trifluoromethyl-cyclopropanamide]
16 | 8.82 | Cn1c(Nc2cc(CNS(=O)(=O)C(C)(C)C)ccc2C(F)(F)F)nc2cc(Cl)c(N3CCC(C(F)(F)F)CC3)cc21 [Example 110, N-(4-Trifluoromethyl-3-(5-chloro-1-methyl-6-(4-trifluoromethyl-piperidin-1-yl)-1H-benzo[d]imidazol-2-ylamino)benzyl)-2-methylpropane-2-sulfonamide]
17 | 8.06 | O=C(NCc1ccc(Cl)c(Nc2nc3cc(Cl)c(N4CCC(C(F)(F)F)CC4)cc3[nH]2)c1)C1(C(F)(F)F)CC1 [Example 75]
18 | 7.82 | N#Cc1cc2nc(Nc3cc(CNC(=O)C4(C(F)(F)F)CC4)ccc3Cl)[nH]c2cc1N1CCCC(C(F)(F)F)C1 (stereo not shown) [Example 130]
19 | 6.20 | CN1CCN(c2cc3[nH]c(Nc4cc(CNC(=O)C5(C(F)(F)F)CC5)ccc4Cl)nc3cc2Cl)CC1 [Example 129]
